Reference: the CheMixHub drug solubility set

Test: xn = mol fraction of the nth substance listed, in the solute-free solvent

COC(=O)Nc1nc2ccccc2[nH]1 + CO + O
solubility (g/100 g solution)
Conditions | 278.15 K | 283.15 K | 288.15 K | 293.15 K | 298.15 K | 303.15 K | 308.15 K | 313.15 K | 318.15 K
x2 = 0.05887 | 0.00186 | 0.00222 | 0.00268 | 0.00321 | 0.00385 | 0.00444 | 0.00519 | 0.00603 | 0.00702
x2 = 0.1235 | 0.00537 | 0.00636 | 0.00764 | 0.00907 | 0.0107 | 0.0124 | 0.0144 | 0.0166 | 0.0191
x2 = 0.1941 | 0.00989 | 0.0117 | 0.0141 | 0.0168 | 0.0198 | 0.0228 | 0.0265 | 0.0306 | 0.0353
x2 = 0.2725 | 0.0136 | 0.0162 | 0.0196 | 0.0233 | 0.0275 | 0.032 | 0.0372 | 0.0432 | 0.0499
x2 = 0.36 | 0.0154 | 0.0185 | 0.0226 | 0.0279 | 0.0321 | 0.0378 | 0.0443 | 0.0516 | 0.06
x2 = 0.4579 | 0.0159 | 0.0192 | 0.0239 | 0.0289 | 0.0343 | 0.0409 | 0.0482 | 0.0567 | 0.0663
x2 = 0.5666 | 0.016 | 0.0196 | 0.0245 | 0.03 | 0.0357 | 0.0432 | 0.0513 | 0.0609 | 0.0717
x2 = 0.6924 | 0.0163 | 0.0203 | 0.0258 | 0.0316 | 0.0381 | 0.0463 | 0.0557 | 0.0664 | 0.0791
x2 = 0.8362 | 0.0175 | 0.0219 | 0.0281 | 0.0347 | 0.0418 | 0.0516 | 0.0624 | 0.075 | 0.0897
